How the values were obtained:
Assay type in all cases: in vivo
canola (Brassica rapa) = assay: Test C pre-/postemergence plant response; conditions: Preemergence
Summary of the method: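 Pre/post spray; solvent blend non-phytotoxic, with surfactant; post stage 1–4 leaves (2–18 cm); controlled environment 15–25 d; visual score 0–100 relative to controls, 100 = complete control.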

[1] = system: purple nutsedge (Cyperus rotundus); assay: Test E pre-/postemergence plant response; conditions: scale 0 to 100
Summary of the method: (§1)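 Greenhouse test. Compound, formulated in a non-phytotoxic solvent with surfactant, is applied preemergence to planted seeds and postemergence to 1- to 4-leaf plants of 2 to 18 cm. Plants are compared with controls after 14 to 21 days and scored 0 (no effect) to 100 (complete control).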

[2] = system: goosegrass (Eleusine indica); assay: Test E pre-/postemergence plant response; conditions: scale 0 to 100
Summary of the method: as §1

[3] = system: common groundsel (Senecio vulgaris); assay: Test E pre-/postemergence plant response; conditions: Postemergence, scale 0 to 100
Summary of the method: as §1

[4] = system: large crabgrass (Digitaria sanguinalis); assay: Test E pre-/postemergence plant response; conditions: scale 0 to 100
Summary of the method: as §1

[5] = system: annual bluegrass (Poa annua); assay: Test E pre-/postemergence plant response; conditions: scale 0 to 100
Summary of the method: as §1

[6] = system: guineagrass (Panicum maximum); assay: Test E pre-/postemergence plant response; conditions: scale 0 to 100
Summary of the method: as §1

[7] = system: pitted morningglory (Ipomoea lacunosa); assay: Test E pre-/postemergence plant response; conditions: scale 0 to 100
Summary of the method: as §1

[8] = system: southern (S.) sandbur (Cenchrus echinatus); assay: Test E pre-/postemergence plant response; conditions: scale 0 to 100
Summary of the method: as §1

[9] = system: green foxtail (Setaria viridis); assay: Test E pre-/postemergence plant response; conditions: scale 0 to 100
Summary of the method: as §1

[10] = system: common mallow (Malva sylvestris); assay: Test E pre-/postemergence plant response; conditions: Postemergence, scale 0 to 100
Summary of the method: as §1

[11] = system: barnyardgrass (Echinochloa crus-galli); assay: Test E pre-/postemergence plant response; conditions: scale 0 to 100
Summary of the method: as §1

Structure (SMILES): CCc1cc(-c2ccc(Cl)cc2)nn1-c1c(O)cnn(C)c1=O [Compound 21]
- Plant response rating, Canola (canola (Brassica rapa); 8 g ai/ha, scale 0 to 100 (0 no effect, 100 complete control)): 0
- Plant response rating, Canola (canola (Brassica rapa); 16 g ai/ha, scale 0 to 100 (0 no effect, 100 complete control)): 0
- Plant response rating, Canola (canola (Brassica rapa); 31 g ai/ha, scale 0 to 100 (0 no effect, 100 complete control)): 0
- Plant response rating, Canola (canola (Brassica rapa); 62 g ai/ha, scale 0 to 100, 0 no effect, 100 complete control): 0
- Plant response rating, Nutsedge, Purple ([1]; 16 g ai/ha, Preemergence): 0
- Plant response rating, Nutsedge, Purple ([1]; 31 g ai/ha, Preemergence): 0
- Plant response rating, Nutsedge, Purple ([1]; 62 g ai/ha, Preemergence): 0
- Plant response rating, Nutsedge, Purple ([1]; Postemergence, 8 g ai/ha): 0
- Plant response rating, Nutsedge, Purple ([1]; Postemergence, 16 g ai/ha): 0
- Plant response rating, Nutsedge, Purple ([1]; Postemergence, 31 g ai/ha): 0
- Plant response rating, Nutsedge, Purple ([1]; Postemergence, 62 g ai/ha): 0
- Plant response rating, Goosegrass ([2]; 8 g ai/ha, Preemergence): 95
- Plant response rating, Goosegrass ([2]; 16 g ai/ha, Preemergence): 100
- Plant response rating, Goosegrass ([2]; 31 g ai/ha, Preemergence): 100
- Plant response rating, Goosegrass ([2]; 62 g ai/ha, Preemergence): 100
- Plant response rating, Goosegrass ([2]; Postemergence, 8 g ai/ha): 75
- Plant response rating, Goosegrass ([2]; Postemergence, 16 g ai/ha): 80
- Plant response rating, Goosegrass ([2]; Postemergence, 31 g ai/ha): 90
- Plant response rating, Goosegrass ([2]; Postemergence, 62 g ai/ha): 98
- Plant response rating, Groundsel ([3]; 8 g ai/ha): 0
- Plant response rating, Groundsel ([3]; 62 g ai/ha): 0
- Plant response rating, Crabgrass, Large ([4]; 8 g ai/ha, Preemergence): 65
- Plant response rating, Crabgrass, Large ([4]; 16 g ai/ha, Preemergence): 100
- Plant response rating, Crabgrass, Large ([4]; 31 g ai/ha, Preemergence): 100
- Plant response rating, Crabgrass, Large ([4]; 62 g ai/ha, Preemergence): 100
- Plant response rating, Crabgrass, Large ([4]; Postemergence, 8 g ai/ha): 80
- Plant response rating, Crabgrass, Large ([4]; Postemergence, 16 g ai/ha): 90
- Plant response rating, Crabgrass, Large ([4]; Postemergence, 31 g ai/ha): 95
- Plant response rating, Crabgrass, Large ([4]; Postemergence, 62 g ai/ha): 98
- Plant response rating, Bluegrass ([5]; 8 g ai/ha, Preemergence): 0
- Plant response rating, Bluegrass ([5]; 16 g ai/ha, Preemergence): 0
- Plant response rating, Bluegrass ([5]; 31 g ai/ha, Preemergence): 0
- Plant response rating, Bluegrass ([5]; 62 g ai/ha, Preemergence): 0
- Plant response rating, Bluegrass ([5]; Postemergence, 8 g ai/ha): 0
- Plant response rating, Bluegrass ([5]; Postemergence, 16 g ai/ha): 0
- Plant response rating, Bluegrass ([5]; Postemergence, 31 g ai/ha): 10
- Plant response rating, Bluegrass ([5]; Postemergence, 62 g ai/ha): 15
- Plant response rating, Guineagrass ([6]; 16 g ai/ha, Preemergence): 100
- Plant response rating, Guineagrass ([6]; 31 g ai/ha, Preemergence): 100
- Plant response rating, Guineagrass ([6]; 62 g ai/ha, Preemergence): 100
- Plant response rating, Guineagrass ([6]; Postemergence, 8 g ai/ha): 95
- Plant response rating, Guineagrass ([6]; Postemergence, 16 g ai/ha): 98
- Plant response rating, Guineagrass ([6]; Postemergence, 31 g ai/ha): 100
- Plant response rating, Guineagrass ([6]; Postemergence, 62 g ai/ha): 100
- Plant response rating, Morningglory ([7]; 16 g ai/ha, Preemergence): 0
- Plant response rating, Morningglory ([7]; 31 g ai/ha, Preemergence): 0
- Plant response rating, Morningglory ([7]; 62 g ai/ha, Preemergence): 0
- Plant response rating, Morningglory ([7]; Postemergence, 8 g ai/ha): 0
- Plant response rating, Morningglory ([7]; Postemergence, 16 g ai/ha): 0
- Plant response rating, Morningglory ([7]; Postemergence, 31 g ai/ha): 0
- Plant response rating, Morningglory ([7]; Postemergence, 62 g ai/ha): 0
- Plant response rating, Sandbur, S. ([8]; 16 g ai/ha, Preemergence): 98
- Plant response rating, Sandbur, S. ([8]; 31 g ai/ha, Preemergence): 100
- Plant response rating, Sandbur, S. ([8]; 62 g ai/ha, Preemergence): 100
- Plant response rating, Sandbur, S. ([8]; Postemergence, 8 g ai/ha): 80
- Plant response rating, Sandbur, S. ([8]; Postemergence, 16 g ai/ha): 80
- Plant response rating, Sandbur, S. ([8]; Postemergence, 31 g ai/ha): 95
- Plant response rating, Sandbur, S. ([8]; Postemergence, 62 g ai/ha): 100
- Plant response rating, Foxtail, Green ([9]; 8 g ai/ha, Preemergence): 75
- Plant response rating, Foxtail, Green ([9]; 16 g ai/ha, Preemergence): 100
- Plant response rating, Foxtail, Green ([9]; 31 g ai/ha, Preemergence): 100
- Plant response rating, Foxtail, Green ([9]; 62 g ai/ha, Preemergence): 100
- Plant response rating, Foxtail, Green ([9]; Postemergence, 8 g ai/ha): 65
- Plant response rating, Foxtail, Green ([9]; Postemergence, 16 g ai/ha): 75
- Plant response rating, Foxtail, Green ([9]; Postemergence, 31 g ai/ha): 95
- Plant response rating, Foxtail, Green ([9]; Postemergence, 62 g ai/ha): 100
- Plant response rating, Mallow ([10]; 8 g ai/ha): 0
- Plant response rating, Mallow ([10]; 16 g ai/ha): 0
- Plant response rating, Mallow ([10]; 31 g ai/ha): 0
- Plant response rating, Mallow ([10]; 62 g ai/ha): 0
- Plant response rating, Barnyardgrass ([11]; 8 g ai/ha, Preemergence): 95
- Plant response rating, Barnyardgrass ([11]; 16 g ai/ha, Preemergence): 100
- Plant response rating, Barnyardgrass ([11]; 31 g ai/ha, Preemergence): 100
- Plant response rating, Barnyardgrass ([11]; 62 g ai/ha, Preemergence): 100
- Plant response rating, Barnyardgrass ([11]; Postemergence, 8 g ai/ha): 100
- Plant response rating, Barnyardgrass ([11]; Postemergence, 16 g ai/ha): 100
- Plant response rating, Barnyardgrass ([11]; Postemergence, 31 g ai/ha): 100
- Plant response rating, Barnyardgrass ([11]; Postemergence, 62 g ai/ha): 100
